# From the supplement of paper PMC7695840
# Counter-ions that a name gives are not always drawn.
# Tests used:
# [1] = tested on: Staphylococcus aureus MW2 delta-mecA (mecA-); assay: IC50 (growth, competition assay); details: cefoxitin: subinhibitory
# Summary of the method: (§1)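 Two fluorescent S. aureus MW2 strains, one carrying and one lacking the resistance gene, were pre-induced, mixed 1:1 and grown unshaken in LB in 1536-well plates for 20 h at 37 °C and 90% humidity with a subinhibitory drug dose set each day. Compounds were tested on five- or nine-point 2-fold gradients in two dye-swapped replicates. DsRed (540/590) and GFP (485/520) signals were scaled per plate between the medians of single-strain controls, and No Treatment was then set to 0.5. For each strain, IC50 was taken as the dose that halved the No Treatment signal, or else the maximal signal.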
# [2] = tested on: Staphylococcus aureus MW2 (mecA+); assay: IC50 (growth, competition assay); details: cefoxitin: subinhibitory
# Summary of the method: as §1
SMILES,IC50 ([1]; fluorescent label: DsRed) [µM],IC50 ([1]; fluorescent label: GFP) [µM],IC50 ([2]; fluorescent label: DsRed) [µM],IC50 ([2]; fluorescent label: GFP) [µM]
Cc1ccc(S(=O)(=O)C=CC#N)cc1 [BAY 11-7082 (BAY 11-7821)],< 9.85,< 9.85,< 9.85,9.88
O=c1c(O)c(-c2ccc(O)c(O)c2)oc2cc(O)cc(O)c12 [Quercetin dihydrate (Sophoretin)],18.7,11.1,58.2,53.4
Cc1coc2c1C(=O)C(=O)c1c-2ccc2c(C)cccc12 [Tanshinone I],76.7,64,130,> 150
COc1cc2ncnc(Nc3ccc(Oc4ccccc4)cc3)c2cc1OC [Src I1],30.6,25.3,29,30.7
CN(C)CCC=C1c2ccccc2CCc2ccccc21 [ELAVIL],33.3,18.5,111,112
CCOc1nc2cccc(C(=O)OCc3oc(=O)oc3C)c2n1Cc1ccc(-c2ccccc2-c2noc(=O)[nH]2)cc1 [EDARBI],12.8,< 9.85,18.7,58.9
CC1=C(O)C(=O)C=C2C1=CC=C1[C@@]2(C)CC[C@@]2(C)[C@@H]3C[C@](C)(C(=O)O)CC[C@]3(C)CC[C@]12C [CELASTROL],< 9.85,< 9.85,< 9.85,< 9.85
COc1c(N2C[C@@H]3CCCN[C@@H]3C2)c(F)cc2c(=O)c(C(=O)O)cn(C3CC3)c12 [Moxifloxacin hydrochloride],< 0.498,< 0.498,< 0.498,< 0.498
CCOC(=O)[C@@H](N)Cc1ccc(-c2cc(O[C@H](c3ccc(Cl)cc3-n3ccc(C)n3)C(F)(F)F)nc(N)n2)cc1 [LX1606 hippurate],< 9.85,< 9.85,21.7,19.2
NC[C@H]1O[C@H](O[C@H]2[C@H](O)[C@@H](O[C@H]3O[C@H](CO)[C@@H](O)[C@H](N)[C@H]3O)[C@H](N)C[C@@H]2N)[C@H](N)C[C@@H]1O [Tobramycin],32,33.8,16,27.6
O=C(N/N=C/c1ccc([N+](=O)[O-])o1)c1ccc(O)cc1 [NIFUROXAZIDE],46.2,< 9.85,< 9.85,54.6
CO/N=C(\C(=O)N[C@@H]1C(=O)N2C(C(=O)OCOC(=O)C(C)(C)C)=C(/C=C\c3scnc3C)CS[C@H]12)c1csc(N)n1 [Cefditoren pivoxil],< 0.498,< 0.498,16.7,13.3
C[C@@H](O)[C@H]1C(=O)N2C(C(=O)O)=C(S[C@@H]3CN[C@H](CNS(N)(=O)=O)C3)[C@H](C)[C@H]12 [Doripenem Hydrate],137,130,> 150,> 150
Cn1nnnc1SCC1=C(C(=O)O)N2C(=O)[C@@H](NC(=O)[C@H](O)c3ccccc3)[C@H]2SC1 [CEFAMANDOLE SODIUM],< 9.85,< 9.85,53.2,52.5
OC(c1cc(C(F)(F)F)nc2c(C(F)(F)F)cccc12)C1CCCCN1 (centres undefined) [LARIAM],< 9.85,< 9.85,< 9.85,< 9.85
COc1cc2c(Oc3ccc(NC(=O)C4(C(=O)Nc5ccc(F)cc5)CC4)cc3F)ccnc2cc1OCCCN1CCOCC1,13.2,12.1,41.9,57.4
C[C@@H]1CCO[C@H]2Cn3cc(C(=O)NCc4ccc(F)cc4F)c(=O)c(O)c3C(=O)N12,109,59,> 150,> 150
O=C1C(SCCO)=C(SCCO)C(=O)c2ccccc21,< 9.85,< 9.85,11.8,16.3
CN(C)[C@@H]1C(O)=C(C(N)=O)C(=O)[C@@]2(O)C(O)=C3C(=O)c4c(O)ccc(Cl)c4[C@@H](O)[C@H]3C[C@@H]12 [DECLOMYCIN],< 9.85,< 9.85,< 9.85,< 9.85
O=C1[C@H](CC[C@H](O)c2ccc(F)cc2)[C@@H](c2ccc(O)cc2)N1c1ccc(F)cc1 [Ezetimibe (Zetia)],24.9,14.9,80.3,108
CC1=C(O)C(=O)C=C2C1=CC=C1[C@@]2(C)CC[C@@]2(C)[C@@H]3C[C@](C)(C(=O)O)CC[C@]3(C)CC[C@]12C [Celastrol],< 0.498,< 0.498,1.67,1.73
